# Earlier results in patent publication US11952328B2, “Selective ship inhibitors for treating disease” (THE RESEARCH FOUNDATION FOR THE STATE UNIVERSITY OF NEW YORK, priority 2018, dated 2024).
# Molecular target: T1, SHIP1 (Homo sapiens, UniProt Q92835)
# T1 sequence (Q92835 1-1189): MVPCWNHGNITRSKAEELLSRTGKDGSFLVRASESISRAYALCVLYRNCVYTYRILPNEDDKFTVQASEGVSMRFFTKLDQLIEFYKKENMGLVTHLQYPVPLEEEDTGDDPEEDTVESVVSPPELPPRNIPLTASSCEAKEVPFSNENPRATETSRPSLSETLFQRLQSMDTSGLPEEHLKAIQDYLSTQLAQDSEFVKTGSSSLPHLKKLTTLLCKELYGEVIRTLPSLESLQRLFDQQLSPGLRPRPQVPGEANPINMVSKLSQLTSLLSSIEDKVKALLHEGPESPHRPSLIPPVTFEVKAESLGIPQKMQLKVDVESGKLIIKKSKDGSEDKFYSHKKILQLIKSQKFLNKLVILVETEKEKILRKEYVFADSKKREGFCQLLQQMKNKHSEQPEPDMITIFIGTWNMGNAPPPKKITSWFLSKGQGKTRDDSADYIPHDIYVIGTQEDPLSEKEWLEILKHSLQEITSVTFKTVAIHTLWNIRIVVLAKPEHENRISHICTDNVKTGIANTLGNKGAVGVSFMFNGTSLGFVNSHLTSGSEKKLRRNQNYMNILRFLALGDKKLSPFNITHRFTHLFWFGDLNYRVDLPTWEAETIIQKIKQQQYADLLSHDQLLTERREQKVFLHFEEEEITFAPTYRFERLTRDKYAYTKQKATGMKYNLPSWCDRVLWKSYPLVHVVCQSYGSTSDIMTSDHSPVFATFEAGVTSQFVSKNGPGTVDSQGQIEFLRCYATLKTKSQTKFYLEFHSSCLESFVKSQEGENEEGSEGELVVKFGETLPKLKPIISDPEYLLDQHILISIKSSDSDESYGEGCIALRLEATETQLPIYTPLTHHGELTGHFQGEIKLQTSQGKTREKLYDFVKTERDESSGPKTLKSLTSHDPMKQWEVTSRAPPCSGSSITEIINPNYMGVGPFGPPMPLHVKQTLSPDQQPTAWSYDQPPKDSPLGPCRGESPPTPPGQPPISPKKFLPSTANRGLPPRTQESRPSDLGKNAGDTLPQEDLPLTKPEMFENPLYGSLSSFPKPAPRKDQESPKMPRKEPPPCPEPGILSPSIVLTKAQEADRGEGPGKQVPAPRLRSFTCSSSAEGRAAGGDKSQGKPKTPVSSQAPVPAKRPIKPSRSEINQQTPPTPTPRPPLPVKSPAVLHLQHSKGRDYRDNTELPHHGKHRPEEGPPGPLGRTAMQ
# Details: Brooks et al. 2010; cited from earlier work
structure (smiles),measurement,value
"CC(C)CCC[C@@H](C)[C@H]1CC[C@H]2[C@@H]3CCC4C[C@H](N)CC[C@]4(C)[C@H]3CC[C@]12C (stereo partly drawn) [Compound 3AC, 3-α-aminocholestane]",selectivity for SHIP1,high degree of selectivity
